{"source": "patent US7550588B2", "about": "“Homotropanes with central nervous system activity” (The Research Foundation of State University of New York, priority 2006, dated 2009)", "key": {"[1]": {"target": "T1, serotonin transporter (SERT) (Rattus norvegicus, UniProt P31652)", "T1 construct": "striatum and frontal cortex dissected from frozen Sprague-Dawley rat brains (Pel-Freez, Rogers, Ark.); tissue Pel-Freez, Rogers, Ark; host or cells: rat frontal cortex membranes (frozen Sprague-Dawley rat brains)", "T1 sequence (P31652 whole entry)": "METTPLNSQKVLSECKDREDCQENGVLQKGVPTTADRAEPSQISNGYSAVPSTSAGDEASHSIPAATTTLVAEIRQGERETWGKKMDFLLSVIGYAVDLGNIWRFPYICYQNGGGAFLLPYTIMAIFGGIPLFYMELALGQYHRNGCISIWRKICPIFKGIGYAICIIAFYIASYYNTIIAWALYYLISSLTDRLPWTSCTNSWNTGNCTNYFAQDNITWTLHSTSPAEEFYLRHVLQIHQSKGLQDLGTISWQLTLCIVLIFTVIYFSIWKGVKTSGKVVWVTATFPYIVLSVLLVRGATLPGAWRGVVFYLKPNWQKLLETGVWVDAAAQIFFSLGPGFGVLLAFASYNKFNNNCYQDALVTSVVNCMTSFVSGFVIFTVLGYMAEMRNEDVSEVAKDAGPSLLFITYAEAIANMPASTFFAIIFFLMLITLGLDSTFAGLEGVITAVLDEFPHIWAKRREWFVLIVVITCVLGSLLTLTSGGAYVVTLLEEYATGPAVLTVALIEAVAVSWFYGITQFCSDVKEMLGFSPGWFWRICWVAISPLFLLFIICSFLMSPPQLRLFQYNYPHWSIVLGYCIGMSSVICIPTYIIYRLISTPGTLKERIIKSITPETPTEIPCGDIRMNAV", "assay": "Displacement of [3H]paroxetine binding at 5-HT transport sites in rat frontal cortex membranes", "conditions": "for Ratio SERT/DAT: SERT binding value divided by DAT binding value; for binding affinity at SERT (in words): summary of Table 1"}, "[2]": {"target": "T2, Dopamine transporter (DAT) (Rattus norvegicus, UniProt P23977)", "T2 construct": "striatum and frontal cortex dissected from frozen Sprague-Dawley rat brains (Pel-Freez, Rogers, Ark.); tissue Pel-Freez, Rogers, Ark; host or cells: rat striatum membranes (frozen Sprague-Dawley rat brains)", "T2 sequence (P23977 whole entry)": "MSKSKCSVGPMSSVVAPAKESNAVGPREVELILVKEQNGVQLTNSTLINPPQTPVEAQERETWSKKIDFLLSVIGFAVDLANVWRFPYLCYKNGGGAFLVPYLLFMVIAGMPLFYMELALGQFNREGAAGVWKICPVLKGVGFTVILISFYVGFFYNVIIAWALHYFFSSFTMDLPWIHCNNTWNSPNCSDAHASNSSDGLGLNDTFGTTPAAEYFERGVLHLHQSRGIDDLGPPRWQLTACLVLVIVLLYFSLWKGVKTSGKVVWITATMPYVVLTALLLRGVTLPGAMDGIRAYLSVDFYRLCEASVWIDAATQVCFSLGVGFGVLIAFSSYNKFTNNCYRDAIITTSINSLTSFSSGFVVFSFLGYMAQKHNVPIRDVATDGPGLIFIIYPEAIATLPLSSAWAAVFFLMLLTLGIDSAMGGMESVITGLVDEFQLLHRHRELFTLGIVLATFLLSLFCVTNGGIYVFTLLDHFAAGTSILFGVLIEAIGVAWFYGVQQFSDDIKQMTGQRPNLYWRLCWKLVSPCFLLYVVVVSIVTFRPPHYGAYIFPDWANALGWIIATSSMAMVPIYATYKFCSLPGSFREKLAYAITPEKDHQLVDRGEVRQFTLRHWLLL", "assay": "Displacement of [125I]RTI-55 binding at dopamine transport sites in rat striatum membranes", "conditions": "for binding affinity at DAT (in words): summary of Table 1"}, "[3]": {"conditions": "[3H]paroxetine 0.4 nM, rat frontal cortex membranes, Cheng-Prusoff, mean ± S.E.M., tested as racemates, read-out: Binding (nM) SERT (converted)"}, "[4]": {"conditions": "[125I]RTI-55 10 pM, rat striatum membranes, mean ± S.E.M., at least three experiments, tested as racemates, read-out: Binding (nM) DAT (converted)"}}, "note": "Like-named read-outs stand apart in the source and are kept apart here.", "data": [{"compound": "CCC(=O)[C@H]1[C@@H](c2ccc(C(C)C)cc2)C[C@@H]2CC[C@H]1N(C)C2", "note": "(racemic) [12c, 3β-(4-Isopropylphenyl)-6-methyl-4β-propionyl-6-azabicyclo[3.2.2]nonane]", "values": [{"measurement": "Ki", "setting": "[1]", "result": 1760, "unit": "nM"}, {"measurement": "Ratio SERT/DAT", "setting": "[1]", "result": 0.23}, {"measurement": "IC50", "setting": "[2]", "result": 7500, "unit": "nM"}]}, {"compound": "C=C(C)c1ccc([C@H]2C[C@@H]3CC[C@H]([C@H]2C(=O)CC)N(C)C3)cc1", "note": "(racemic) [12f, 6-Methyl-4β-propionyl-3β-(4-isopropenylphenyl)-6-azabicyclo[3.2.2]nonane]", "values": [{"measurement": "Ki", "setting": "[1]", "result": 32.8, "unit": "nM"}, {"measurement": "Ratio SERT/DAT", "setting": "[1]", "result": 0.03}, {"measurement": "selectivity for SERT", "setting": "[1]; SERT versus DAT binding", "result": "most selective for SERT"}, {"measurement": "IC50", "setting": "[2]", "result": 880, "unit": "nM"}]}, {"compound": "CCC(=O)[C@H]1[C@@H](c2ccc(C)cc2)[C@H](C)[C@@H]2CC[C@H]1N(C)C2", "note": "(racemic) [12g, 2α,6-Dimethyl-4β-propionyl-3β-(p-tolyl)-6-azabicyclo[3.2.2]nonane]", "values": [{"measurement": "Ki", "setting": "[1]", "result": "> 2500", "unit": "nM"}, {"measurement": "IC50", "setting": "[2]", "result": 1830, "unit": "nM"}]}, {"compound": "C=C(C)c1ccc([C@@H]2C[C@@H]3CC[C@@H](NC3)[C@H]2C(=O)CC)cc1", "note": "(racemic) [18b, 4β-Propionyl-3α-(4-isopropenylphenyl)-6-azabicyclo[3.2.2]nonane]", "values": [{"measurement": "Ratio SERT/DAT", "setting": "[1]", "result": 0.02}, {"measurement": "Ki", "setting": "[1]; [3]", "result": 6.48, "unit": "nM"}, {"measurement": "binding affinity at SERT (in words)", "setting": "[1]", "result": "relatively strong binding"}, {"measurement": "IC50", "setting": "[2]; [4]", "result": 370, "unit": "nM"}, {"measurement": "binding affinity at DAT (in words)", "setting": "[2]", "result": "relatively strong binding"}]}, {"compound": "CCC(=O)[C@@H]1C2CCC(C[C@@H]1c1ccc(C)cc1)CN2C", "note": "(relative stereo) [12a, 6-Methyl-4β-propionyl-3β-(p-tolyl)-6-azabicyclo[3.2.2]nonane]", "values": [{"measurement": "Ki", "setting": "[1]", "result": "2230 ± 410", "unit": "nM"}, {"measurement": "Ratio SERT/DAT", "setting": "[1]", "result": 19}, {"measurement": "IC50", "setting": "[2]", "result": "117 ± 13", "unit": "nM"}]}, {"compound": "CCC(=O)[C@@H]1C2CCC(C[C@@H]1c1ccc3ccccc3c1)CN2C", "note": "(relative stereo) [12b, 6-Methyl-3β-(2-naphthyl)-4β-propionyl-6-azabicyclo[3.2.2]nonane]", "values": [{"measurement": "Ki", "setting": "[1]", "result": "13.4 ± 0.0138", "unit": "nM"}, {"measurement": "Ratio SERT/DAT", "setting": "[1]", "result": 4.8}, {"measurement": "binding affinity at SERT (in words)", "setting": "[1]", "result": "strongest binding affinity"}, {"measurement": "IC50", "setting": "[2]", "result": 2.8, "unit": "nM"}, {"measurement": "binding affinity at DAT (in words)", "setting": "[2]", "result": "strongest binding affinity"}]}, {"compound": "CCC(=O)[C@@H]1C2CCC(C[C@H]1c1ccc(C)cc1)CN2C", "note": "(relative stereo) [13a, 6-Methyl-4α-propionyl-3β-(p-tolyl)-6-azabicyclo[3.2.2]nonane]", "values": [{"measurement": "Ki", "setting": "[1]; [3]", "result": "> 2500", "unit": "nM"}, {"measurement": "binding affinity at SERT (in words)", "setting": "[1]", "result": "very low binding affinity"}, {"measurement": "IC50", "setting": "[2]; [4]", "result": "1160 ± 240", "unit": "nM"}, {"measurement": "binding affinity at DAT (in words)", "setting": "[2]", "result": "very low binding affinity"}]}, {"compound": "CCC(=O)[C@@H]1C2CCC(C[C@H]1c1ccc3ccccc3c1)CN2C", "note": "(relative stereo) [13b, 6-Methyl-3β-(2-naphthyl)-4α-propionyl-6-azabicyclo[3.2.2]nonane]", "values": [{"measurement": "Ki", "setting": "[1]", "result": 6.2, "unit": "nM"}, {"measurement": "Ratio SERT/DAT", "setting": "[1]", "result": "— 0.3"}, {"measurement": "IC50", "setting": "[2]", "result": 20.8, "unit": "nM"}]}, {"compound": "CCC(=O)[C@@H]1C2CCC(CN2)C[C@H]1c1ccc(C)cc1", "note": "(relative stereo) [18a, 4β-Propionyl-3α-(p-tolyl)-6-azabicyclo[3.2.2]nonane]", "values": [{"measurement": "Ki", "setting": "[1]", "result": "469 ± 32", "unit": "nM"}, {"measurement": "Ratio SERT/DAT", "setting": "[1]", "result": 2.5}, {"measurement": "binding affinity at SERT (in words)", "setting": "[1]", "result": "relatively strong binding"}, {"measurement": "IC50", "setting": "[2]", "result": "187 ± 55", "unit": "nM"}, {"measurement": "binding affinity at DAT (in words)", "setting": "[2]", "result": "relatively strong binding"}]}, {"compound": "CCC(=O)[C@@H]1C2CCC(CN2)C[C@@H]1c1ccc(C)cc1", "note": "(relative stereo) [compound 19, 4β-Propionyl-3β-(p-tolyl)-6-azabicyclo [3.2.2]nonane]", "values": [{"measurement": "Ki", "setting": "[1]", "result": "156 ± 26", "unit": "nM"}, {"measurement": "Ratio SERT/DAT", "setting": "[1]", "result": 6.3}, {"measurement": "IC50", "setting": "[2]", "result": "24.9 ± 5.6", "unit": "nM"}]}, {"compound": "CCC(=O)C1C(c2ccc(Cl)cc2)CC2CCC1N(C)C2", "note": "(stereo not drawn) [12d, 3β-(4-Chlorophenyl)-6-methyl-4β-propionyl-6-azabicyclo[3.2.2]nonane]", "values": [{"measurement": "Ki", "setting": "[1]", "result": 860, "unit": "nM"}, {"measurement": "Ratio SERT/DAT", "setting": "[1]", "result": 23}, {"measurement": "IC50", "setting": "[2]", "result": 38.1, "unit": "nM"}]}, {"compound": "C=Cc1ccc(C2CC3CCC(C2C(=O)CC)N(C)C3)cc1", "note": "(stereo not drawn) [12e, 3β-(4-Ethenylphenyl)-6-methyl-4β-propionyl-6-azabicyclo[3.2.2]nonane]", "values": [{"measurement": "Ki", "setting": "[1]", "result": 116, "unit": "nM"}, {"measurement": "Ratio SERT/DAT", "setting": "[1]", "result": 1.9}, {"measurement": "IC50", "setting": "[2]", "result": 75, "unit": "nM"}]}, {"compound": "CCC(=O)C1C(c2ccc(C)cc2)C(c2ccccc2)C2CCC1N(C)C2", "note": "(stereo not drawn) [12h, 6-Methyl-2α-phenyl-4β-propionyl-3β-(p-tolyl)-6-azabicyclo[3.2.2]nonane]", "values": [{"measurement": "melting point", "result": "172 to 173", "unit": "°C"}, {"measurement": "Ki", "setting": "[1]", "result": "> 2500", "unit": "nM"}, {"measurement": "IC50", "setting": "[2]", "result": 4100, "unit": "nM"}]}, {"compound": "CCC(=O)C1C(c2ccc(C)cc2)C(C)C2(C)CCC1N(C)C2", "note": "(stereo not drawn) [12i, 1,2α,6-Trimethyl-4β-propionyl-3β-(p-tolyl)-6-azabicyclo[3.2.2]nonane]", "values": [{"measurement": "Ki", "setting": "[1]", "result": "> 2500", "unit": "nM"}, {"measurement": "IC50", "setting": "[2]", "result": 2140, "unit": "nM"}]}, {"compound": "CCC(=O)C1C(c2ccc(C)cc2)C(c2ccccc2)C2(C)CCC1N(C)C2", "note": "(stereo not drawn) [12j, 1,6-Dimethyl-2α-phenyl-4β-propionyl-3β-(p-tolyl)-6-azabicyclo[3.2.2]-nonane]", "values": [{"measurement": "melting point", "result": "141 to 144", "unit": "°C"}, {"measurement": "Ki", "setting": "[1]", "result": "> 2500", "unit": "nM"}, {"measurement": "IC50", "setting": "[2]", "result": 5600, "unit": "nM"}]}, {"compound": "CCC(=O)C1C2CCC(CC1c1ccc(C)cc1)N(C)C2", "note": "(stereo not drawn) [compound 23, 6-Methyl-2α-propionyl-3β-(p-tolyl)-6-azabicyclo[3.2.2]nonane]", "values": [{"measurement": "IC50", "setting": "[2]; [4]", "result": "4700 ± 900", "unit": "nM"}, {"measurement": "binding affinity at DAT (in words)", "setting": "[2]", "result": "very low binding affinity"}]}, {"compound": "CCC(=O)C1C(c2ccc(C)cc2)CC2CCC1N(C)C2=O", "note": "(stereo not drawn) [compound 27, 6-Methyl-4β-propionyl-3β-(p-tolyl)-6-azabicyclo[3.2.2]nonan-7-one]", "values": [{"measurement": "Ki", "setting": "[1]; [3]", "result": "> 2500", "unit": "nM"}, {"measurement": "binding affinity at SERT (in words)", "setting": "[1]", "result": "very low binding affinity"}, {"measurement": "IC50", "setting": "[2]; [4]", "result": 7000, "unit": "nM"}, {"measurement": "binding affinity at DAT (in words)", "setting": "[2]", "result": "very low binding affinity"}]}]}
